According to the METLIN SMRT retention time set (Domingo-Almenara et al. 2019):

Assay: gradient 5% acetonitrile 3 min, to 50% in 2 min, to 85% in 15 min, held 3 min, 100 µL/min
Conditions: column: Zorbax Extend-C18 2.1 x 50 mm; eluents: water / acetonitrile, 0.1% formic acid
Procedure, shortened: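 Mixtures of ~100 pure standards were chromatographed on a Zorbax Extend-C18 column (2.1 × 50 mm, 1.8 μm) at 100 μL/min using water and acetonitrile, each with 0.1% formic acid. Detection used a quadrupole time-of-flight mass spectrometer in positive and negative ionization mode, and data collection spanned 3 months. Retention time was obtained from adduct peaks picked computationally and each checked manually.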

Compound | RP-LC retention time
O=C(Cc1csc2nc(-c3ccccc3)cn12)Nc1cccc(Br)c1 | 906 s
NC(=O)c1cccc(Nc2c(-c3ccc(Cl)cc3)nc3cnccn23)c1 | 685 s
O=C(NCc1ccccc1)c1c(O)c2cccnc2n(-c2cccc(F)c2)c1=O | 1160 s
O=C(NCCC1CCN(C(=O)Nc2ccc(F)cc2)CC1)c1ccco1 | 718 s
COc1ccc(C2C(C(=O)NCCCN3CCCCCC3)CCC(=O)N2c2ccc(OC)cc2)cc1 (centres undefined) | 589 s
CCn1c(=O)c(N2CCC(NC(=O)NC3CCCCC3)CC2)nc2ccccc21 | 831 s
CCOC(=O)c1[nH]c(C)c(CCC(=O)N2CCC(C(=O)NC3CCCC3)CC2)c1C | 729 s
CCOC(=O)c1cc(S(=O)(=O)N2CCCC2C(=O)Nc2ccc(C(C)C)cc2)cn1C (centres undefined) | 1070 s
COc1ccc(C(=O)N2CCC3(CC2)NC(=O)c2ccc(Cl)cc2N3)cc1OC | 692 s
Fc1cccc(-c2nc(-c3cn(Cc4ccccc4)nn3)no2)c1 | 1020 s
COC(=O)C1=C(C)NC(=O)NC1c1cn(-c2ccccc2)nc1-c1ccc(F)cc1 (centres undefined) | 857 s
CCN1C(=O)Cc2ccccc2C1C(=O)NCc1ccc(Br)cc1 (centres undefined) | 802 s
O=C(CCc1c(-c2ccc(F)cc2)nc2ccccn12)NCc1cccc(F)c1 | 645 s
Cc1ccc(CN2C(=O)C3(CCOCC3)CC2c2nnnn2C(C)(C)C)cc1C (centres undefined) | 862 s
CC(C)(C)NC(=O)C(=O)c1c(-c2ccccc2)cc2ccccn12 | 948 s
CN(C)C(=O)C1CCc2sc(C(=O)N3CCOCC3)cc2C1 (centres undefined) | 614 s
O=S(=O)(NC1CCCCCC1)c1cc(-c2cc(C(F)(F)F)on2)cs1 | 1200 s
COc1ccc(NC(=O)CC2=C3CCCCC3NC2=O)cn1 (centres undefined) | 640 s
Cc1cccc2nnc(N3CCCC(C(=O)N4CCN(C5CCCCC5)CC4)C3)n12 (centres undefined) | 570 s
CCN1C(=O)C2CC3(CCN(C(=O)CC4CCCC4)CC3)CN2C1=O (centres undefined) | 741 s

Compound | RP-LC retention time
COc1ccc(CNC2=NCCNC23CCN(S(=O)(=O)c2ccc(C)c(C)c2)CC3)cc1 | 775 s
O=C(CSc1ccc(-c2ccccn2)nn1)Nc1ccc(F)c(F)c1 | 789 s
CC(C)c1cccc(NS(=O)(=O)c2cc3n(c2)CCCNC3=O)c1 | 723 s
COCCOC1CN(C2CCN(C(=O)Nc3ccccc3)CC2)C12CCCCC2 (centres undefined) | 641 s
CCn1cc(C)c(C(=O)O)c1CC(=O)NCCC(C)C | 749 s
O=C(Nc1c(F)cccc1F)N1CCc2[nH]cnc2C1c1ccccn1 (centres undefined) | 582 s
CCC(=O)N(C1CCOCC1)C1CCN(S(=O)(=O)c2cccc(C)c2)CC1 | 836 s
COc1ccc(NC(=O)N2[C@H]3CC[C@@H]2c2cnc(-c4ccccc4)nc2C3)cc1OC | 838 s
COc1ccc2c(c1)C1(CCN(S(=O)(=O)c3ccccc3F)C1)C(=O)N2 (centres undefined) | 808 s
O=C([C@@H]1C[C@H](F)CN1S(=O)(=O)c1ccc(F)c(F)c1)N1CCc2ccccc2C1 | 943 s
CC(C)c1nc(-n2cccc2)sc1C(=O)Nc1ccccc1F | 1270 s
COCCCNC(=O)CCc1cn(Cc2ccccc2F)c2ccccc12 | 909 s
Cc1ccc(S(=O)(=O)N2CC=C(c3cn(C)c4ncccc34)CC2)cc1C | 1080 s
CCNc1cc(N2CCC(CCC(=O)N3CCN(C(C)C)CC3)CC2)ncn1 | 524 s
Cc1ccccc1NS(=O)(=O)c1cc2n(c1)CCCN(C)C2=O | 666 s
CCOCCCNC(=O)C1c2c(n(C)c3ccccc23)SCC(=O)N1Cc1ccc(OC)cc1 (centres undefined) | 875 s
O=C(Cn1ccc2ccccc21)NCCCC(=O)Nc1cccc2cccnc12 | 786 s
CCOC(=O)CCNC(=O)N1[C@H]2CC[C@@H]1c1cnc(-c3ccc(F)cc3)nc1C2 | 797 s
CC1CCN(c2cc(-n3cnc(C(=O)N4CCOCC4)c3)ncn2)CC1 | 750 s
CN(C)c1ncncc1N1CCC(C(=O)NCc2ccc3c(c2)OCO3)CC1 | 587 s

Compound | RP-LC retention time
COCCN1CCC(N2CCN(S(=O)(=O)c3ccccc3Cl)CC2)C1=O (centres undefined) | 567 s
Cc1ccc2nc(C(=O)NC(C)c3ccc(F)cc3)cn2c1 (centres undefined) | 670 s
O=C(NCCCN1CCN(c2ccccc2F)CC1)C1CCCN(c2nc3cccnc3s2)C1 (centres undefined) | 652 s
Cc1ccccc1NC(=O)C1(C)Oc2cccnc2NC1=O (centres undefined) | 673 s
CCN1CCC(N(Cc2ccc3c(c2)OCO3)C(=O)Nc2ccccc2)CC1 | 650 s
CC(C)NC(=O)c1cccc(Nc2c(-c3ccc(Cl)cc3)nc3cnccn23)c1 | 687 s
CN1CCOc2ccc(NC(=O)C3CCN(S(C)(=O)=O)CC3)cc2C1=O | 590 s
CC(C)Cn1c(=O)c(C(=O)NCc2ccccc2)nc2cccnc21 | 915 s
Cc1ccc(NC(=O)CCCN2C(=O)COc3ccc(C)cc32)c(C)c1 | 929 s
COCCNC(=O)C1c2ccccc2CC(=O)N1Cc1ccccc1 (centres undefined) | 711 s
COc1ccc(CCc2nc3nccc(-c4ccccc4)n3n2)cc1OC | 821 s
Cn1cc(C(=O)Nc2ccc3c(c2)CCC3)c(S(=O)(=O)N2CCSCC2)n1 | 1040 s
Cc1cc(NC(=O)CSc2ccc(-c3cccc([N+](=O)[O-])c3)nn2)no1 | 752 s
Cc1ccc(N2CCN(C(=O)c3c(C)oc4nc(C)nc(N5CCOCC5)c34)CC2)c(C)c1 | 1020 s
CCCn1ccc2sc(C)c(C(=O)NC3CCN(Cc4ccccc4)CC3)c2c1=O | 625 s
Cc1cc(NC(=O)Cc2nn(C)c(=O)c3ccccc23)ccc1Br | 856 s
CCc1n[nH]c(CC2CCN(C(=O)C3(c4ccccc4)CC3)CC2)n1 | 608 s
O=C(NCCSc1ncc(-c2ccc(F)cc2)[nH]1)c1ccccc1Cl | 604 s
O=C(c1ccc2c(c1)OCO2)N1CCC2(CC1)CC(O)CCO2 (centres undefined) | 590 s

Next, values leading:

RP-LC retention time | Compound
774 s | Cc1cc2nn(CC(=O)N3CCCC3)c(=O)n2c(-c2ccc(C(F)(F)F)cc2)n1
1080 s | O=C(Nc1cccc(F)c1)N1CCCC1c1nc(-c2cccc(Cl)c2)no1 (centres undefined)
693 s | Cn1nc(C(=O)N2CCCC(C(=O)NC3CC3)C2)c2c1CCN(C(=O)Cc1ccc(Cl)cc1)C2 (centres undefined)
1070 s | Cc1ccc(Sc2nccnc2N2CCC(C(=O)NCc3ccc(F)cc3F)CC2)cc1
998 s | Cc1cc(NC(=O)Cn2c(=O)cc(-c3nc(C4CC4)no3)c3ccccc32)ccc1F
717 s | Cn1c(C2CCN(C(=O)Nc3cccc(C(F)(F)F)c3)CC2)cc(=O)n2nccc12
590 s | O=C(Cn1cnc2ccccc2c1=O)N1CCOCC1
864 s | C=Cc1ccc(Cn2nc3ccc(S(=O)(=O)N4CCOCC4)cn3c2=O)cc1
730 s | Cc1c(C(=O)NCC(c2cccs2)N2CCCC2)oc2ccc(Cl)cc12 (centres undefined)
750 s | CCC(=O)N1CCc2cc(N3CC(C(=O)Nc4cccc(OC)c4)CC3=O)ccc21 (centres undefined)
1060 s | Cc1nc(-c2csc(S(=O)(=O)N3CCC(C(=O)NCCc4ccccc4)CC3)c2)no1
796 s | Cc1noc(C)c1CCNC(=O)CN1C(=O)C2CCCCN2c2ccc(S(=O)(=O)N(C)C)cc21 (centres undefined)
811 s | COc1ccc(-c2nnc(N3CCC(C(=O)NC4CCCCC4)CC3)o2)cc1
715 s | O=C(c1ccc2c(c1)OCO2)N1CCCN(C(=O)C2CC2)c2ccccc21
974 s | Cc1cccc(-c2noc(C3CCCN3C(=O)NCc3ccc(F)cc3)n2)c1 (centres undefined)
680 s | COc1ccc(CC(=O)Nc2ccc3ncnc(N4CCCC4)c3c2)cc1Cl
821 s | COc1ccc(NC(=O)NC2CCN(c3ccc(C)c(C)c3)C2=O)cc1 (centres undefined)
624 s | Cc1cc2nc(C)c(=O)n(CC(=O)NCCCN(C)C3CCCCC3)c2cc1C
841 s | Cc1ccc(NC(=O)Cn2c(=O)c(CCC(=O)NC3CCCC3)nc3ccccc32)c(C)c1
991 s | CC1=C(c2ccccc2)S(=O)(=O)N=C1N1CCCN(C(=O)C2CC2)CC1
653 s | O=C(NCc1cc(F)ccc1F)C1CCN(c2cncnc2N2CCCC2)CC1
640 s | O=C(c1ccc(Cl)cc1)N1CCN=C1N1CCCCC1
1030 s | Cc1ccc(NC(=O)CN2CCc3ccccc3C2C(=O)N2CCCCC2)cc1Cl (centres undefined)
883 s | Cc1ccccc1N1CCN(C(=O)c2cc(C)n3nccc3n2)CC1
676 s | O=C(Nc1cccc(F)c1)N1CCCC(Cn2c(C3CC3)nc3cccnc32)C1 (centres undefined)
916 s | O=C(NCCc1ccccc1)c1nnc(-c2ccc(S(=O)(=O)N3CCCC3)cc2)o1
611 s | CN1CCN(C(=O)c2nn(-c3ccc(Cl)cc3)c3c(=O)n(C)cnc23)CC1
647 s | COc1cc(-c2nc3nc(C)cc(C)n3c2Nc2ccccc2)ccc1O
674 s | O=C(NCc1ccc2c(c1)OCO2)c1ccc2c(c1)N(CC(=O)N1CCCC1)C(=O)CO2
557 s | CN(C)c1ccc(CNC(=O)C2CCN(c3cnc(N4CCCC4)nc3)CC2)cc1
